From US9328122B2, “7-substituted Hanfangichin B derivative, and preparation method and use thereof” (HANGZHOU BENSHENG PHARMACEUTICAL CO., LTD., priority 2012, dated 2016) come the findings set out here.

Data set [1] relates to K562/ADR (K562adr, drug-resistant chronic myeloid leukemia) cells. Briefly: MTT cell growth inhibition, leukemia cells. The class given is cell-based. To be noted: Homo sapiens, K562/ADR, 72 h, MTT; for IC50: read-out: IC50; for IC90: read-out: IC90. From the text: (§1) Leukemia cell lines: leukemia cell lines: K562adr (drug-resistant, chronic myeloid leukemia, CML), NB4 (acute promyelocytic leukemia, AML), Kasumi-1 (acute myeloid leukemia M2 type, AML-M2), Jurkat (acute lymphoblastic leukemia, ALL), all of which were donated by Cancer Research Institute of Zhejiang University, China; and H9 (acute lymphoblastic leukemia, ALL), which was purchased from China Center for Type Culture Collection.
(§2) Reagents: The standard sample of fangchinoline (FAN) was purchased from Ci Yuan Biotechnology Co., Ltd., Shaanxi, China; and the 7-substituted fangchinoline derivatives according to the present invention.
(§3) 6000 well-growing leukemia cells were obtained and inoculated into wells of a 96-well cell culture plate. The culture medium was a RPMI-1640 cell culture medium containing 10% fetal bovine serum. After adding the 7-substituted fangchinoline derivatives of different concentrations the next day and mixing uniformly, the plate was placed in a carbon dioxide cell incubator (5% CO2) at 37° C. and incubating for 72 hours. Then the viable cell concentration was determined by the MTT method.

Data set [2] has as its system NB4 (acute promyelocytic leukemia) cells. In words: MTT cell growth inhibition, leukemia cells. The class given is cell-based. The note with it: Homo sapiens, NB4, 72 h, MTT; for IC50: read-out: IC50; for IC90: read-out: IC90.
Description: as §1, §2, §3

Data set [3] deals with CaEs-17 (esophageal cancer) cells. Briefly: MTT cell growth inhibition, solid tumor cells. The class given is cell-based, human. To be noted: for IC50 / IC90: Homo sapiens, CaEs17, CaEs-17, 72 h, MTT; for IC50: read-out: IC50; for IC90: read-out: IC90. The method, boiled down:
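Cells were first cultured for 24 h (6000/well, DMEM high glucose plus 10% fetal bovine serum, 37 °C, 5% CO2). Next they were treated with compound at different concentrations for 72 h, then assayed by MTT.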

Data set [4] relates to KCL-22M transplanted tumor. In words: Transplanted tumor of leukemia in nude mice. The class given is in vivo, BALBc nude mice. Here is the method:
Leukemia cell lines: KCL-22M (human chronic myeloid leukemia mutant strain);
The mice were administered from the second day after the inoculation. […] The administrations were successive for 10 days. […] On Day 25, the mice were sacrificed and the tumors are taken out and weighed.

The subject of data set [5] is Hep G2 transplanted tumor. In words: Transplanted tumor of liver cancer in nude mice.
Description: Liver cancer cell lines: Hep G2 (human liver cancer cell line);
Animal: BALBc nude mice (immunodeficient mice), 8 weeks, female, purchased from Shanghai Laboratory Animal Center of Chinese Academy of Sciences, China.
Under sterile conditions, the Hep G2 cells in the logarithmic growth phase were respectively collected and injected subcutaneously in an amount of 2.3×10^7/0.2 mL/nude mice (cell viability >90%) into the left subaxillary of the nude mice, thus establishing a transplanted tumor model of liver cancer in nude mice. The mice were administered from the second day after inoculation. The experimental group was intragastrically administered with the experimentally designed amount, the negative control group was intragastrically administered with sterile water, and the positive control group was intragastrically administered with erlotinib hydrochloride. Each mouse was intragastrically administered in 0.4 ml each time and 3 times a day, at 8:00, 14:00 and 20:00, with 6-hour intervals. The administrations were successive for 10 days. The day before administration was deemed as Day 0 and the weight and tumor size of the mice were determined every 5 days to produce a dynamic plot on weight and tumor growth (the experimental results are presented as mean±SD). On Day 28, the mice were sacrificed and the tumors were taken out and weighed. The tumor inhibition rate (%) after the effect of the medicament was calculated based on a tumor inhibition rate of the control group being zero.
The experimental data for each group were analyzed by using the One-way ANOVA method in the SPSS 19.0 statistical software and were compared with the control group for significance of difference.

Each structure is given as a SMILES string. In brackets after ≈: the same amount, converted by molar mass.

Take `COc1ccc2cc1Oc1ccc(cc1)C[C@H]1c3cc(c(OC)cc3CCN1C)Oc1c(OC3CCCC3)c(OC)cc3c1[C@H](C2)N(C)CC3` [BS-FC-220]: the half-inhibitory concentration (IC50) – broadly, the point on the concentration scale where inhibition reaches its midpoint – in data set [1] turned out to be 0.43 µg/mL (≈ 0.635 µM); in data set [2], 0.66 µg/mL (≈ 0.975 µM); in data set [3], 2.6 µg/mL (≈ 3.84 µM). The 90% effect concentration (IC90) (as a rule, the concentration at which the effect reaches the 90% level) in data set [1] is 4 µg/mL (≈ 5.91 µM); in data set [2], 3.16 µg/mL (≈ 4.67 µM); in data set [3], 9.32 µg/mL (≈ 13.8 µM).

On to `COc1ccc2cc1Oc1ccc(cc1)C[C@H]1c3cc(c(OC)cc3CCN1C)Oc1c(OS(=O)(=O)c3ccc(C)cc3)c(OC)cc3c1[C@H](C2)N(C)CC3` [BS-FC-102], for which the IC50 in data set [1] stood at 0.4 µg/mL (≈ 0.524 µM); in data set [2], 0.38 µg/mL (≈ 0.498 µM); in data set [3], 2.47 µg/mL (≈ 3.24 µM). Besides, the IC90 in data set [1] is 3.03 µg/mL (≈ 3.97 µM); in data set [2], 0.94 µg/mL (≈ 1.23 µM); in data set [3], 7.91 µg/mL (≈ 10.4 µM).

With `COc1ccc2cc1Oc1ccc(cc1)C[C@H]1c3cc(c(OC)cc3CCN1C)Oc1c(OCc3ccc(C(F)(F)F)cc3)c(OC)cc3c1[C@H](C2)N(C)CC3` [BS-FC-216], the 50% inhibitory concentration (IC50) was 0.6 µg/mL (≈ 0.782 µM) in data set [1], 0.99 µg/mL (≈ 1.29 µM) in data set [2] and 3.1 µg/mL (≈ 4.04 µM) in data set [3]. In addition, the concentration for an effect of 90% (IC90) was found to be 2.15 µg/mL (≈ 2.8 µM) in data set [1], 2.93 µg/mL (≈ 3.82 µM) in data set [2] and 7.59 µg/mL (≈ 9.9 µM) in data set [3].

Consider `COc1cc(OC)cc(C(=O)Oc2c(OC)cc3c4c2Oc2cc5c(cc2OC)CCN(C)[C@H]5Cc2ccc(cc2)Oc2cc(ccc2OC)C[C@@H]4N(C)CC3)c1` [BS-FC-311], for which the half-maximal inhibitory concentration (IC50) in data set [1] is 0.48 µg/mL (≈ 0.621 µM); in data set [2] it was 0.22 µg/mL (≈ 0.285 µM); in data set [3] it was 1.95 µg/mL (≈ 2.52 µM). Moreover, the results for the 90% effect concentration (IC90) in data set [1], in data set [2] and in data set [3] were 2.83 µg/mL (≈ 3.66 µM), 0.96 µg/mL (≈ 1.24 µM) and 7.37 µg/mL (≈ 9.54 µM), respectively.

For the compound `COc1ccc2cc1Oc1ccc(cc1)C[C@H]1c3cc(c(OC)cc3CCN1C)Oc1c(OCc3cccc(F)c3F)c(OC)cc3c1[C@H](C2)N(C)CC3` [BS-FC-204], the results for the IC50 in data set [1], in data set [2] and in data set [3] were 0.38 µg/mL (≈ 0.517 µM), 0.39 µg/mL (≈ 0.531 µM) and 4.6 µg/mL (≈ 6.26 µM), respectively. Besides, the figures for the IC90 in data set [1], in data set [2] and in data set [3] were 1.92 µg/mL (≈ 2.61 µM), 2.57 µg/mL (≈ 3.5 µM) and 14.5 µg/mL (≈ 19.8 µM), respectively.

Regarding `COc1ccc2cc1Oc1ccc(cc1)C[C@H]1c3cc(c(OC)cc3CCN1C)Oc1c(OCC(O)CN3CCCC(C)C3)c(OC)cc3c1[C@H](C2)N(C)CC3` (some centres unmarked) [BS-FC-410], the results for the 50% inhibitory concentration (IC50) in data set [1], in data set [2] and in data set [3] were 0.05 µg/mL (≈ 0.0654 µM), 0.28 µg/mL (≈ 0.367 µM) and 0.76 µg/mL (≈ 0.995 µM), respectively. The 90% effect concentration (IC90) in data set [1] came out at 0.63 µg/mL (≈ 0.825 µM); in data set [2], 0.91 µg/mL (≈ 1.19 µM); in data set [3], 4.3 µg/mL (≈ 5.63 µM).

`COc1ccc2cc1Oc1ccc(cc1)C[C@H]1c3cc(c(OC)cc3CCN1C)Oc1c(OCC(O)CN3CCCCC3)c(OC)cc3c1[C@H](C2)N(C)CC3` (some centres unmarked) [BS-FC-403]: the figures for the IC50 in data set [1], in data set [2] and in data set [3] were 0.05 µg/mL (≈ 0.0667 µM), 0.3 µg/mL (≈ 0.4 µM) and 0.43 µg/mL (≈ 0.573 µM), respectively. Also, the IC90 in data set [1] turned out to be 0.83 µg/mL (≈ 1.11 µM); in data set [2], 0.78 µg/mL (≈ 1.04 µM); in data set [3], 1.99 µg/mL (≈ 2.65 µM). Moreover, the “anti-CaEs-17 activity increase over fangchinoline” value in data set [3] (relative to fangchinoline, Table 2) was around 4 fold.

`COc1ccc2cc1Oc1ccc(cc1)C[C@H]1c3cc(c(OC)cc3CCN1C)Oc1c(OC(=O)c3ccc(N(C)C)cc3)c(OC)cc3c1[C@H](C2)N(C)CC3` [BS-FC-308]: the “animal's weight during the administration (toxic and side effects)” value in data set [4] (30 mg/kg/time, three administrations per day, weight rebounded after administration was stopped) is “weight was reduced”. Further, the Mass of tumor in data set [4] (KCL-22M transplanted tumor, Day 25, 30 mg/kg/time intragastric 3 times a day for 10 days) worked out at 521 ± 249 mg; in data set [5] (Hep G2 transplanted tumor, Day 28, intragastric 3 times a day for 10 days, BS-FC-308 35 mg/kg/time, erlotinib hydrochloride 20 mg/kg/time) it was 566 ± 112.26 mg. The “Tumor Inhibition rate” value in data set [4] (KCL-22M transplanted tumor, Day 25, 30 mg/kg/time intragastric 3 times a day for 10 days, control = 0) was found to be 74.45%; in data set [5] (Hep G2 transplanted tumor, Day 28, intragastric 3 times a day for 10 days, BS-FC-308 35 mg/kg/time, erlotinib hydrochloride 20 mg/kg/time, control = 0), 55.82%. Moreover, the “Body Weight (g) Initial” value worked out at 19.5 ± 0.2 g in data set [4] (KCL-22M tumor nude mice, before administration, 30 mg/kg/time intragastric 3 times a day, mean±SD) and 21.8 ± 0.62 g in data set [5] (Hep G2 tumor nude mice, before administration, intragastric 3 times a day, BS-FC-308 35 mg/kg/time, erlotinib hydrochloride 20 mg/kg/time, mean±SD). The “Body Weight (g) Final” value worked out at 15.4 ± 1.51 g in data set [4] (KCL-22M tumor nude mice, final, 30 mg/kg/time intragastric 3 times a day for 10 days, mean±SD) and 19.0 ± 0.49 g in data set [5] (Hep G2 tumor nude mice, final, intragastric 3 times a day for 10 days, BS-FC-308 35 mg/kg/time, erlotinib hydrochloride 20 mg/kg/time, mean±SD). Further, the figures for the 50% inhibitory concentration (IC50) in data set [1], in data set [2] and in data set [3] were 0.08 µg/mL (≈ 0.106 µM), 0.37 µg/mL (≈ 0.489 µM) and 0.93 µg/mL (≈ 1.23 µM), respectively. The values for the IC90 in data set [1], in data set [2] and in data set [3] were 0.47 µg/mL (≈ 0.622 µM), 0.98 µg/mL (≈ 1.3 µM) and 3.92 µg/mL (≈ 5.19 µM), respectively. For the same compound, the “weight of the Hep G2 transplanted tumors (FIG. 3)” value in data set [5] (nude mice) was “significantly reduces”.

In the case of `COc1ccc2cc1Oc1ccc(cc1)C[C@H]1c3cc(c(OC)cc3CCN1C)Oc1c(OC(=O)C3CC3)c(OC)cc3c1[C@H](C2)N(C)CC3` [BS-FC-304], the IC50 is 0.44 µg/mL (≈ 0.65 µM) in data set [1], 1.24 µg/mL (≈ 1.83 µM) in data set [2] and 2.35 µg/mL (≈ 3.47 µM) in data set [3]. Further, the IC90 in data set [1] stood at 3 µg/mL (≈ 4.43 µM); in data set [2], 3.99 µg/mL (≈ 5.9 µM); in data set [3] it was 10.7 µg/mL (≈ 15.8 µM).
